The values below come from patent publication US9034896B2, “N-(imidazolidin-2-ylidene)-heterocyclopenta[b]pyridine derivatives as modulators of alpha 2 adrenergic receptors” (Allergan, Inc., priority 2011, dated 2015).

What all share (assay type): cell-based
Assay [1] has as its target T1, Alpha 2B adrenergic receptor (Homo sapiens, UniProt P18089).
T1 construct: expressed in transfected cells
T1 sequence (P18089 1-450): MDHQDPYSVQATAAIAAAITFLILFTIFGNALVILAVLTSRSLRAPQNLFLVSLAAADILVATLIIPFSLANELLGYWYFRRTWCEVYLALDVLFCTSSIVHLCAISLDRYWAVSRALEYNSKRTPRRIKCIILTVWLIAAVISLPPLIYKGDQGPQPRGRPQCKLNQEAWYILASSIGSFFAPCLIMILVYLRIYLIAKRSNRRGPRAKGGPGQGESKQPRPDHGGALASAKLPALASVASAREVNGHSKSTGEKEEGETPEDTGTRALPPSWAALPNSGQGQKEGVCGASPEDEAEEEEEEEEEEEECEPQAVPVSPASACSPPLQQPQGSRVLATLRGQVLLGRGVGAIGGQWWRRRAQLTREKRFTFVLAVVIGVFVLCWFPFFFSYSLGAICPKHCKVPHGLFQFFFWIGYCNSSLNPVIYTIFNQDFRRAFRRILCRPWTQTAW
As to the kind of experiment: RSAT (Receptor Selection and Amplification Technology) assay, alpha 2B. To be noted: for Intrinsic Activity EC50 Alpha 2B / EC50: cells expressing alpha 2B receptor alone, receptor-mediated growth response, NA = not active; for Intrinsic Activity (efficacy) Alpha 2B: relative efficacy compared to a standard full agonist; for EC50: read-out: Intrinsic Activity EC50 Alpha 2B. The protocol:
(§1) Cells expressing each of the alpha 2 adrenergic receptors alone were incubated with the various compounds and a receptor-mediated growth response was measured. The compound's activity is expressed as its relative efficacy compared to a standard full agonist (see Table 3).

Assay [2] has as its target T2, Alpha 2C adrenergic receptor (Homo sapiens, UniProt P18825).
T2 construct: expressed in transfected cells
T2 sequence (P18825 1-462): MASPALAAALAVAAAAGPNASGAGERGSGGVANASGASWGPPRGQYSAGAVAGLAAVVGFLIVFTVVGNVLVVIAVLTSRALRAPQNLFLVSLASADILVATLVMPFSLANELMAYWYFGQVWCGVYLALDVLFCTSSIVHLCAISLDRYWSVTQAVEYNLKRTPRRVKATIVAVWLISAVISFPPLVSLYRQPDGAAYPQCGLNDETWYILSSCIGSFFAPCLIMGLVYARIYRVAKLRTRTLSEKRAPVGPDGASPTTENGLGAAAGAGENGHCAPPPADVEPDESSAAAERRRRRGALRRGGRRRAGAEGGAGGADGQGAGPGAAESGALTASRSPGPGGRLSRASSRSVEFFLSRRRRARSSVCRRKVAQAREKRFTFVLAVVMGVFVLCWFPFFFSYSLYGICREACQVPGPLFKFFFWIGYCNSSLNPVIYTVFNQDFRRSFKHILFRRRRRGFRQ
As to the kind of experiment: RSAT (Receptor Selection and Amplification Technology) assay, alpha 2C. The following applies: for Intrinsic Activity (efficacy) Alpha 2C: relative efficacy compared to a standard full agonist; for EC50: read-out: Intrinsic Activity EC50 Alpha 2C. The method, then:
as §1

Assay [3] has as its target T3, Alpha 2A adrenergic receptor (Homo sapiens, UniProt P08913).
T3 construct: expressed in transfected cells
T3 sequence (P08913 1-465): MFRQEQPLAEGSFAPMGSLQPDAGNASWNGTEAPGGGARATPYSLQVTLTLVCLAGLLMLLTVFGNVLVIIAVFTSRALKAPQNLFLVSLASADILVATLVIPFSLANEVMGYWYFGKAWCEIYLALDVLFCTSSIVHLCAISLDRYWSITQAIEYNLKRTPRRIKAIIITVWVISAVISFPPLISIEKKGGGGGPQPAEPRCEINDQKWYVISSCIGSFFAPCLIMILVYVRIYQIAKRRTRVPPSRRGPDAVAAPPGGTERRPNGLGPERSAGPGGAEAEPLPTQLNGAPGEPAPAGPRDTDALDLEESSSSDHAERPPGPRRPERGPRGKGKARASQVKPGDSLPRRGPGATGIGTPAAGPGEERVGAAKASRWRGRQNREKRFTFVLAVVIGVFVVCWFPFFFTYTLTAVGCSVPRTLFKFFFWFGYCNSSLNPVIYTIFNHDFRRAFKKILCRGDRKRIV
As to the kind of experiment: RSAT (Receptor Selection and Amplification Technology) assay, alpha 2A. The following applies: for EC50: cells expressing alpha 2A receptor alone, receptor-mediated growth response, NA = not active, read-out: Intrinsic Activity EC50 Alpha 2A; for Intrinsic Activity (efficacy) Alpha 2A: relative efficacy compared to a standard full agonist. The protocol: as §1

Setting [4] is: cells expressing alpha 2C receptor alone, receptor-mediated growth response, NA = not active.

As a reminder, the EC50 is the midpoint of the concentration-response curve.

On to `Cc1c(N=C2NCCN2)cnc2[nH]ccc12` [Compound 1, N-(4,5-dihydro-1H-imidazol-2-yl)-4-methyl-1H-pyrrolo[2,3-b]pyridin-5-amine], for which, in assay [1], the “Intrinsic Activity EC50 Alpha 2B” value is “potent” and the “Intrinsic Activity (efficacy) Alpha 2B” value is “(0.82)”. Moreover, the “Intrinsic Activity EC50 Alpha 2C” value in assay [2] (setting [4]) is recorded as “potent”. In assay [2], the “Intrinsic Activity (efficacy) Alpha 2C” value was “(0.94)”. Moreover, in assay [3], the EC50 amounted to 8.2 nM and the “Intrinsic Activity (efficacy) Alpha 2A” value is 0.85.
Consider `Clc1c(N=C2NCCN2)cnc2[nH]ccc12` [Compound 2, 4-Chloro-N-(imidazolidin-2-ylidene)-1H-pyrrolo[2,3-b]pyridin-5-amine], for which the EC50 in assay [1] was 5.36 nM; in assay [2] (setting [4]), 10.5 nM; in assay [3], 25.2 nM. Also, the “Intrinsic Activity (efficacy) Alpha 2B” value in assay [1] worked out at 0.72. For the same compound, the “Intrinsic Activity (efficacy) Alpha 2C” value in assay [2] was 0.91. The “Intrinsic Activity (efficacy) Alpha 2A” value in assay [3] stood at 0.73.
In the case of `Brc1c(N=C2NCCN2)cnc2[nH]ccc12` [Compound 3, 4-Bromo-N-(imidazolidin-2-ylidene)-1H-pyrrolo[2,3-b]pyridin-5-amine], in assay [1], the EC50 worked out at 32.6 nM and the “Intrinsic Activity (efficacy) Alpha 2B” value is listed as 0.17. In assay [2] (setting [4]), the half-maximal effective concentration (EC50) was 31.2 nM. The “Intrinsic Activity (efficacy) Alpha 2C” value in assay [2] is on record as 0.84. Moreover, in assay [3], the 50% effective concentration (EC50) was found to be 62.2 nM and the “Intrinsic Activity (efficacy) Alpha 2A” value stood at 0.16.
For the compound `Cn1ccc2cc(N=C3NCCN3)cnc21` [Compound 4, N-(imidazolidin-2-ylidene)-1-methyl-1H-pyrrolo[2,3-b]pyridin-5-amine], the values for the EC50 in assay [1] and in assay [2] (setting [4]) were 114 nM and 31 nM, respectively. For the same compound, the “Intrinsic Activity (efficacy) Alpha 2B” value in assay [1] is listed as 0.57. Moreover, in assay [2], the “Intrinsic Activity (efficacy) Alpha 2C” value came to 0.93.
For `c1cc2cc(N=C3NCCN3)cnc2o1` [Compound 5, N-(imidazolidin-2-ylidene)furo[2,3-b]pyridin-5-amine], the EC50 in assay [2] (setting [4]) stood at 2110 nM. In addition, the “Intrinsic Activity (efficacy) Alpha 2C” value in assay [2] came out at 0.73.
Consider `c1nc2cc(N=C3NCCN3)cnc2s1` [Compound 6, N-(4,5-dihydro-1H-imidazol-2-yl)thiazolo[5,4-b]pyridin-6-amine], for which, in assay [1], the EC50 stood at 267 nM and the “Intrinsic Activity (efficacy) Alpha 2B” value was 0.46. Moreover, the EC50 in assay [2] (setting [4]) turned out to be 10 nM. For the same compound, the “Intrinsic Activity (efficacy) Alpha 2C” value in assay [2] is 0.97.
As for `c1cc2cc(N=C3NCCN3)cnc2[nH]1` [Compound 7, N-(imidazolidin-2-ylidene)-1H-pyrrolo[2,3-b]pyridin-5-amine], in assay [1], the “Intrinsic Activity EC50 Alpha 2B” value is reported as “potent” and the “Intrinsic Activity (efficacy) Alpha 2B” value is recorded as “(0.87)”. In assay [2] (setting [4]), the EC50 was determined as 7.3 nM. The “Intrinsic Activity (efficacy) Alpha 2C” value in assay [2] is 0.94. Moreover, in assay [3], the EC50 turned out to be 16.2 nM and the “Intrinsic Activity (efficacy) Alpha 2A” value stood at 0.89.
Regarding `c1nc2cc(N=C3NCCN3)cnc2[nH]1` [Compound 8, N-(imidazolidin-2-ylidene)-3H-imidazo[4,5-b]pyridin-6-amine], in assay [1], the EC50 is 722 nM and the “Intrinsic Activity (efficacy) Alpha 2B” value was 0.61. Further, in assay [2] (setting [4]), the EC50 came out at 448 nM. The “Intrinsic Activity (efficacy) Alpha 2C” value in assay [2] was determined as 0.87.
